Hepatotoxicity data for 58 compounds are collected here from ChEMBL document CHEMBL1697692, “Developing structure-activity relationships for the prediction of hepatotoxicity” (Chem Res Toxicol, 2010).

For this data set, the system named is Hepatotoxicity. Nature of the data set: Literature-mined public compounds from Greene et al multi-species hepatotoxicity modelling dataset.

Regarding `Cc1oncc1C(=O)Nc1ccc(C(F)(F)F)cc1` [LEFLUNOMIDE], the Hepatotoxicity result is listed as “HH: Evidence of human hepatotoxicity”.
For `COc1ccc2[nH]cc(CCNC(C)=O)c2c1` [MELATONIN] the value was “NE: No evidence of hepatotoxicity in any species”; for `C[C@@H]1C[C@H]2[C@@H]3CCC4=CC(=O)C=C[C@]4(C)[C@@]3(Cl)[C@@H](O)C[C@]2(C)[C@@]1(OC(=O)c1ccco1)C(=O)CCl` [MOMETASONE FUROATE], “NE: No evidence of hepatotoxicity in any species”.
`CC(O)(CS(=O)(=O)c1ccc(F)cc1)C(=O)Nc1ccc(C#N)c(C(F)(F)F)c1` (stereo not drawn) [BICALUTAMIDE]: the Hepatotoxicity result is “HH: Evidence of human hepatotoxicity”.
Consider `CN1CCCCC1CCN1c2ccccc2Sc2ccc([S+](C)[O-])cc21.O=S(=O)(O)c1ccccc1` (stereo not drawn) [MESORIDAZINE BESYLATE], for which the Hepatotoxicity result is listed as “HH: Evidence of human hepatotoxicity”.
For `CC(N)C(O)c1ccccc1.Cl` (stereo not drawn) [PHENYLPROPANOLAMINE HYDROCHLORIDE] the value was “NE: No evidence of hepatotoxicity in any species”; for `CC(C)(Oc1ccc(CCNC(=O)c2ccc(Cl)cc2)cc1)C(=O)O` [BEZAFIBRATE], “NE: No evidence of hepatotoxicity in any species”; for `C[C@@H](CO)NC(=O)[C@@H]1C=C2c3cccc4[nH]cc(c34)C[C@H]2N(C)C1.O=C(O)/C=C\C(=O)O` [ERGONOVINE MALEATE], “NE: No evidence of hepatotoxicity in any species”.
On to `CCN(CC)CCCC(C)Nc1ccnc2cc(Cl)ccc12.O=P(O)(O)O.O=P(O)(O)O` (stereo not drawn) [CHLOROQUINE PHOSPHATE], for which the Hepatotoxicity entry is “WE: Weak evidence (<10 case reports) of human hepatotoxicity”.
Take `CC[C@H]1OC(=O)[C@H](C)C(=O)[C@H](C)[C@@H](O[C@@H]2O[C@H](C)C[C@H](N(C)C)[C@H]2O)[C@](C)(OC)C[C@@H](C)C(=O)[C@H](C)[C@H]2N(CCCCn3cnc(-c4cccnc4)c3)C(=O)O[C@]12C` [TELITHROMYCIN]: the Hepatotoxicity entry is “HH: Evidence of human hepatotoxicity”.
Regarding `CN(C)CCC=C1c2ccccc2CCc2ccccc21.Cl` [AMITRIPTYLINE HYDROCHLORIDE], the Hepatotoxicity result is given as “WE: Weak evidence (<10 case reports) of human hepatotoxicity”.
The result for `O=C1CCC(=O)N1c1cc(Cl)cc(Cl)c1` [DIMETHACHLON] reads “AH: Evidence for animal hepatotoxicity but not tested in humans”; that for `C#CC1(O)CC[C@H]2[C@@H]3CCC4=CC(=O)CC[C@@H]4[C@H]3CC[C@@]21CC` (stereo partly drawn) [NORGESTREL], “HH: Evidence of human hepatotoxicity”; that for `C[C@H](CCC(=O)O)[C@H]1CC[C@H]2[C@@H]3[C@@H](O)C[C@@H]4C[C@H](O)CC[C@]4(C)[C@H]3CC[C@]12C` (stereo in doubt; form 1) [URSODIOL], “HH: Evidence of human hepatotoxicity”.
As to `CC(=O)Nc1cccc(O)c1` [METACETAMOL], the Hepatotoxicity result is on record as “WE: Weak evidence (<10 case reports) of human hepatotoxicity”.
For FERROUS SULFATE the value was “NE: No evidence of hepatotoxicity in any species”.
For `ClCCCl` [1,2-DICHLOROETHANE] the value was “AH: Evidence for animal hepatotoxicity but not tested in humans”; for `Cc1cn([C@H]2C[C@H](N=[N+]=[N-])[C@@H](CO)O2)c(=O)[nH]c1=O` [ZIDOVUDINE], “HH: Evidence of human hepatotoxicity”; for `C[C@H](C(=O)O)c1ccc2oc(-c3ccc(F)cc3)nc2c1` [FLUNOXAPROFEN], “WE: Weak evidence (<10 case reports) of human hepatotoxicity”.
For `O=S(=O)(O)O.Oc1cccc2cccnc12.Oc1cccc2cccnc12` [OXYQUINOLINE SULFATE] the value was “HH: Evidence of human hepatotoxicity”; for `CCSCC[C@H](N)C(=O)O` (stereo in doubt; form 2) [ETHIONINE], “AH: Evidence for animal hepatotoxicity but not tested in humans”; for `Cc1cc(C2CCCCC2)n(O)c(=O)c1` [CICLOPIROX], “NE: No evidence of hepatotoxicity in any species”.
Consider `CN(C)CCCN1c2ccccc2CCc2ccc(Cl)cc21` [CLOMIPRAMINE], for which the Hepatotoxicity result is recorded as “HH: Evidence of human hepatotoxicity”.
For `C[C@H](CCC(=O)NCCS(=O)(=O)O)[C@H]1CC[C@H]2[C@@H]3[C@@H](O)C[C@@H]4C[C@H](O)CC[C@]4(C)[C@H]3CC[C@]12C` [TAURURSODIOL] the value was “HH: Evidence of human hepatotoxicity”; for `CN(C)CCN(Cc1cccs1)c1ccccn1`, “HH: Evidence of human hepatotoxicity”.
For `CC(=O)O[C@H]1C(=O)[C@@]2(C)[C@H]([C@H](OC(=O)c3ccccc3)[C@]3(O)C[C@H](OC(=O)[C@H](O)[C@@H](NC(=O)c4ccccc4)c4ccccc4)C(C)=C1C3(C)C)[C@]1(OC(C)=O)CO[C@@H]1C[C@@H]2O` [PACLITAXEL] the value was “HH: Evidence of human hepatotoxicity”; for `NC[C@H]1O[C@H](O[C@H]2[C@H](O)[C@@H](O[C@H]3O[C@H](CO)[C@@H](O)[C@H](N)[C@H]3O)[C@H](N)C[C@@H]2N)[C@H](N)C[C@@H]1O` [TOBRAMYCIN], “HH: Evidence of human hepatotoxicity”; for `CC(=O)OCC1=C(C(=O)[O-])N2C(=O)[C@@H](NC(=O)Cc3cccs3)[C@H]2SC1.[Na+]` [CEPHALOTHIN SODIUM], “HH: Evidence of human hepatotoxicity”.
For the compound `Clc1ccc2c(c1)C(N1CCNCC1)=Nc1ccccc1O2` [AMOXAPINE], the Hepatotoxicity result was “WE: Weak evidence (<10 case reports) of human hepatotoxicity”.
The result for `CCCSc1ccc2nc(NC(=O)OC)[nH]c2c1` [ALBENDAZOLE] reads “HH: Evidence of human hepatotoxicity”; that for `CS(=O)(=O)OCCCCOS(C)(=O)=O` [BUSULFAN], “HH: Evidence of human hepatotoxicity”.
As to `OC(Cn1cncn1)(Cn1cncn1)c1ccc(F)cc1F` [FLUCONAZOLE], the Hepatotoxicity result was “HH: Evidence of human hepatotoxicity”.
Turning to `CN1CCC(=C2c3ccccc3CCc3cccnc32)CC1.O=C(O)/C=C\C(=O)O.O=C(O)/C=C\C(=O)O` [AZATADINE MALEATE], the Hepatotoxicity entry is “HH: Evidence of human hepatotoxicity”.
`CC1=C(/C=C/C(C)=C/C=C/C(C)=C\C(=O)O)C(C)(C)CCC1` [ISOTRETINOIN]: the Hepatotoxicity result is recorded as “HH: Evidence of human hepatotoxicity”.
As for `Cc1cc(CC(=O)O)n(C)c1C(=O)c1ccc(Cl)cc1` [ZOMEPIRAC], the Hepatotoxicity result is reported as “NE: No evidence of hepatotoxicity in any species”.
Consider `COC(=O)Nc1nc2ccc(C(=O)c3cccs3)cc2[nH]1` [NOCODAZOLE], for which the Hepatotoxicity result is reported as “NE: No evidence of hepatotoxicity in any species”.
In the case of `OCCO` [ETHYLENE GLYCOL], the Hepatotoxicity entry is “AH: Evidence for animal hepatotoxicity but not tested in humans”.
For `O=C([O-])O.[Na+]` [SODIUM BICARBONATE] the value was “AH: Evidence for animal hepatotoxicity but not tested in humans”; for `CC(CCc1ccccc1)NCC(O)c1ccc(O)c(C(N)=O)c1` (stereo not drawn) [LABETALOL], “HH: Evidence of human hepatotoxicity”; for `Cc1nc(C)c2c(n1)N(Cc1ccc(-c3ccccc3-c3nnn[nH]3)cc1)C(=O)CC2` [TASOSARTAN], “HH: Evidence of human hepatotoxicity”.
The result for `NC(N)=Nc1nc(CSCCC(N)=NS(N)(=O)=O)cs1` [FAMOTIDINE] reads “WE: Weak evidence (<10 case reports) of human hepatotoxicity”; that for `O=[N+]([O-])c1ccc(O)c([N+](=O)[O-])c1` [2,4-DINITROPHENOL], “AH: Evidence for animal hepatotoxicity but not tested in humans”.
As for `CN(C)C(=O)Oc1ccc[n+](C)c1.[Br-]` [PYRIDOSTIGMINE BROMIDE], the Hepatotoxicity entry was “NE: No evidence of hepatotoxicity in any species”.
For `Cc1nnc(NS(=O)(=O)c2ccc(N)cc2)s1` [SULFAMETHIZOLE] the value was “HH: Evidence of human hepatotoxicity”; for `CCc1ccc(CCOc2ccc(CC3SC(=O)NC3=O)cc2)nc1` (stereo not drawn) [PIOGLITAZONE], “WE: Weak evidence (<10 case reports) of human hepatotoxicity”; for CADMIUM DICHLORIDE, “AH: Evidence for animal hepatotoxicity but not tested in humans”.
`Clc1ccc(COC(Cn2ccnc2)c2ccc(Cl)cc2Cl)cc1.O=[N+]([O-])O` (stereo not drawn) [ECONAZOLE NITRATE]: the Hepatotoxicity result is given as “NE: No evidence of hepatotoxicity in any species”.
Take `CN1CCN(C(c2ccccc2)c2ccccc2)CC1` [CYCLIZINE]: the Hepatotoxicity entry is “HH: Evidence of human hepatotoxicity”.
For `COc1ccc2c(c1)c(CC(=O)O)c(C)n2C(=O)c1ccc(Cl)cc1` [INDOMETHACIN] the value was “HH: Evidence of human hepatotoxicity”.
`NC1CCN(c2c(F)cc3c(=O)c(C(=O)O)cn(C4CC4)c3c2Cl)C1` (stereo not drawn) [CLINAFLOXACIN]: the Hepatotoxicity entry is “WE: Weak evidence (<10 case reports) of human hepatotoxicity”.
For `C[C@H](CS)C(=O)N1CCC[C@H]1C(=O)O` [CAPTOPRIL] the value was “HH: Evidence of human hepatotoxicity”; for AURANOFIN, “HH: Evidence of human hepatotoxicity”; for `CN(C)CCC(c1ccc(Cl)cc1)c1ccccn1.O=C(O)/C=C\C(=O)O` (stereo not drawn) [CHLORPHENIRAMINE MALEATE], “HH: Evidence of human hepatotoxicity”.
The result for `CC1(COc2ccc(CC3SC(=O)NC3=O)cc2)CCCCC1` (stereo not drawn) [CIGLITAZONE] reads “HH: Evidence of human hepatotoxicity”; that for `COC(=O)Nc1nc2ccc(C(=O)c3ccccc3)cc2[nH]1` [MEBENDAZOLE], “HH: Evidence of human hepatotoxicity”; that for `O=C1NC(=O)C(O)(O)C(=O)N1`, “NE: No evidence of hepatotoxicity in any species”.
Take `CC[C@@]1(O)C[C@H](O[C@H]2C[C@H](N(C)C)[C@H](O[C@H]3C[C@H](O)[C@H](O[C@H]4CCC(=O)[C@H](C)O4)[C@H](C)O3)[C@H](C)O2)c2c(cc3c(c2O)C(=O)c2c(O)cccc2C3=O)[C@H]1C(=O)OC.Cl` [ACLARUBICIN HYDROCHLORIDE]: the Hepatotoxicity entry is “WE: Weak evidence (<10 case reports) of human hepatotoxicity”.
For the compound `c1ccc2c(c1)Nc1ccccc1S2` [PHENOTHIAZINE], the Hepatotoxicity result is “HH: Evidence of human hepatotoxicity”.
